Data taken from patent US7402674B2, “7-Phenylamino-4-quinolone-3-carboxylic acid derivatives, process for their preparation and their use as medicaments” (Sanofi-Aventis Deutschland GmbH,, priority 2004, dated 2008).

Molecular target: T1, human glycogen phosphorylase a (Homo sapiens, UniProt P06737)
T1 sequence (P06737 1-847): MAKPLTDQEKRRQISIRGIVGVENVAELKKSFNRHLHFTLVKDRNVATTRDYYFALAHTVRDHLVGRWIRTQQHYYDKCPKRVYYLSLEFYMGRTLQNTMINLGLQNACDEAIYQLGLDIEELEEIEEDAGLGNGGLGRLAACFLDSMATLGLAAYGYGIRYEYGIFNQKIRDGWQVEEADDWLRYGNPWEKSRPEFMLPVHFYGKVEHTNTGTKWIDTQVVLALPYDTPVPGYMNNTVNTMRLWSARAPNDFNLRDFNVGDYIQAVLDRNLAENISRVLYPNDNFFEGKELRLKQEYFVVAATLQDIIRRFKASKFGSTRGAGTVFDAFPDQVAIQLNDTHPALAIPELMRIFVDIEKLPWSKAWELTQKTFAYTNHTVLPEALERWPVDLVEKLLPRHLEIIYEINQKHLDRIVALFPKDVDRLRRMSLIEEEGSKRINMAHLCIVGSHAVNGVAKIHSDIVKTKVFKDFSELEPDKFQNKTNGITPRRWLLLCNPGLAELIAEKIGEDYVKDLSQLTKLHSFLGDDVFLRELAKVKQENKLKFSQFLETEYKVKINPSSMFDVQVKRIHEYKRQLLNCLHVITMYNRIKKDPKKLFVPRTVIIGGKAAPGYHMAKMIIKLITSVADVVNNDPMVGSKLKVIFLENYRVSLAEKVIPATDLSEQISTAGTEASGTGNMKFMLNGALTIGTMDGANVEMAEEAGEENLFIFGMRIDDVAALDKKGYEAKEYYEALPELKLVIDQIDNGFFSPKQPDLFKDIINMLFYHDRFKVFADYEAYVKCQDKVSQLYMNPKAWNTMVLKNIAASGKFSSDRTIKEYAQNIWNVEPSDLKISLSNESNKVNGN
Test: Glycogen phosphorylase a activity assay
Assay type: biochemical
Conditions: 10 μM test substance; reverse direction (glycogen synthesis from glucose 1-phosphate, liberated inorganic phosphate)
Protocol: Glycogen Phosphorylase a Activity Assay
The effect of compounds on the activity of the active form of glycogen phosphorylase (GPa) was measured in the reverse direction by following the synthesis of glycogen from glucose 1-phosphate by determining the liberation of inorganic phosphate. All the reactions were carried out as duplicate determinations in microtiter plates with 96 wells (Half Area Plates, Costar No 3696), measuring the change in absorption owing to the formation of the reaction product at the wavelength specified hereinafter in a Multiskan Ascent Elisa Reader (Lab Systems, Finland).
In order to measure the GPa enzymic activity in the reverse direction, the general method of Engers et al. (Engers H D, Shechosky S, Madsen N B, Can J Biochem 1970 July; 48(7):746-754) was used to measure the conversion of glucose 1-phosphate into glycogen and inorganic phosphate, with the following modifications: human glycogen phosphorylase a (for example with 0.76 mg of protein/ml (Aventis Pharma Deutschland GmbH), dissolved in buffer solution E (25 mM β-glycerophosphate, pH 7.0, 1 mM EDTA and 1 mM dithiothreitol) was diluted with buffer T (50 mM Hepes, pH 7.0, 100 mM KCl, 2.5 mM EDTA, 2.5 mM MgCl2.6H2O) and addition of 5 mg/ml glycogen to a concentration of 10 μg of protein/ml. […] After incubation at 45° C. for 60 minutes, the absorption at 820 nm was measured. […]

Substance: 1-Ethyl-6-(4-ethylphenylamino)-7-methyl-4-oxo-1,4-dihydro-[1,8]naphthyridine-3-carboxylate [Example 1]
- % inhibition at 10 μM: 14%
